Experimental data taken from PubChem BioAssay AID248 (DTP/NCI, 2004).
Where “and” joins values, the source holds several entries; their conditions need not be identical. Identical values can stand only once. Inconclusive results and toxic doses are left out. Rule as the data show it: active = T/C of 150% or more; inactive = T/C below 125%.

Tested on: L1210 leukemia ip in BDF1 mice, survival T/C
Assay: NCI In Vivo Anticancer Drug Screen. Data for tumor model L1210 Leukemia (intraperitoneal) in B6D2F1 (BDF1) mice
Details: endpoint: mean survival time, higher = longer survival
Method in brief: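 Mice bearing the transplanted tumor received compound or vehicle. Survival of the treated group was divided by that of the vehicle-treated control group to give the ratio.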

[1] = dose: 100.0 mg/kg/injection, schedule: Q01DX009 (ip), vehicle: saline
[2] = dose: 100.0 mg/kg/injection, schedule: Q04DX003 (ip), vehicle: saline with Tween-80
[3] = dose: 200.0 mg/kg/injection, schedule: Q01DX001 (ip), vehicle: saline
[4] = dose: 200.0 mg/kg/injection, schedule: Q01DX009 (ip), vehicle: saline
[5] = dose: 200.0 mg/kg/injection, schedule: Q04DX003 (ip), vehicle: saline with Tween-80
[6] = dose: 400.0 mg/kg/injection, schedule: Q01DX001 (ip), vehicle: saline
[7] = dose: 400.0 mg/kg/injection, schedule: Q04DX003 (ip), vehicle: saline with Tween-80
[8] = dose: 100.0 mg/kg/injection, schedule: Q01DX009 (ip), vehicle: Klucel (hydroxypropylcellulose) (HPC)
[9] = dose: 100.0 mg/kg/injection, schedule: Q04DX003 (ip), vehicle: Klucel (hydroxypropylcellulose) (HPC)
[10] = dose: 200.0 mg/kg/injection, schedule: Q01DX009 (ip), vehicle: Klucel (hydroxypropylcellulose) (HPC)
[11] = dose: 200.0 mg/kg/injection, schedule: Q04DX003 (ip), vehicle: Klucel (hydroxypropylcellulose) (HPC)
[12] = dose: 400.0 mg/kg/injection, schedule: Q01DX009 (ip), vehicle: Klucel (hydroxypropylcellulose) (HPC)
[13] = dose: 400.0 mg/kg/injection, schedule: Q04DX003 (ip), vehicle: Klucel (hydroxypropylcellulose) (HPC)
[14] = dose: 100.0 mg/kg/injection, schedule: Q01DX009 (ip), vehicle: saline with Tween-80
[15] = dose: 100.0 mg/kg/injection, schedule: Q01DX001 (ip), vehicle: saline
[16] = dose: 200.0 mg/kg/injection, schedule: Q01DX009 (ip), vehicle: saline with Tween-80
[17] = dose: 400.0 mg/kg/injection, schedule: Q01DX009 (ip), vehicle: saline with Tween-80
[18] = dose: 100.0 mg/kg/injection, schedule: Q04DX002 (ip), vehicle: saline

Measured: T/C

COc1ccc(/C=N/NC(N)=S)cc1
inactive: dose: 32.0 mg/kg/injection, schedule: Q01DX009 (ip), vehicle: saline 101 % of control and 92 % of control | dose: 32.0 mg/kg/injection, schedule: Q01DX010 (ip), vehicle: saline 97 % of control and 91 % of control | dose: 64.0 mg/kg/injection, schedule: Q01DX009 (ip), vehicle: saline 98 % of control and 100 % of control | dose: 64.0 mg/kg/injection, schedule: Q01DX010 (ip), vehicle: saline 96 % of control and 91 % of control | dose: 64.0 mg/kg/injection, schedule: Q01DX010 (iv), vehicle: saline 92 % of control | [1] 104 % of control | [2] 95 % of control | dose: 128.0 mg/kg/injection, schedule: Q01DX009 (ip), vehicle: saline 97 % of control and 102 % of control | dose: 128.0 mg/kg/injection, schedule: Q01DX010 (ip), vehicle: saline 94 % of control and 95 % of control | dose: 128.0 mg/kg/injection, schedule: Q01DX010 (iv), vehicle: saline 92 % of control | [3] 94 % of control | dose: 200.0 mg/kg/injection, schedule: Q01DX009 (ip), vehicle: acetone 95 % of control | [4] 100 % of control | [5] 95 % of control | dose: 256.0 mg/kg/injection, schedule: Q01DX009 (ip), vehicle: saline 101 % of control and 109 % of control | dose: 256.0 mg/kg/injection, schedule: Q01DX010 (ip), vehicle: saline 97 % of control and 90 % of control | dose: 256.0 mg/kg/injection, schedule: Q01DX010 (iv), vehicle: saline 102 % of control | [6] 100 % of control | dose: 400.0 mg/kg/injection, schedule: Q01DX009 (ip), vehicle: acetone 88 % of control | dose: 400.0 mg/kg/injection, schedule: Q01DX009 (ip), vehicle: saline 98 % of control | [7] 102 % of control | dose: 800.0 mg/kg/injection, schedule: Q01DX001 (ip), vehicle: saline 96 % of control

O=C(Nc1ccc([N+](=O)[O-])cc1Cl)Oc1cccc2ccccc12
inactive: [8] 96 % of control | [9] 105 % of control | [10] 96 % of control | [11] 105 % of control | [12] 102 % of control | [13] 105 % of control

CC1C(N2CCCCC2)N(C(=O)c2ccccc2)SC12c1ccccc1-c1ccccc12 (stereo unspecified)
inactive: dose: 100.0 mg/kg/injection, schedule: Q04DX002 (ip), vehicle: Klucel (hydroxypropylcellulose) (HPC) 94 % of control | dose: 200.0 mg/kg/injection, schedule: Q04DX002 (ip), vehicle: Klucel (hydroxypropylcellulose) (HPC) 102 % of control | dose: 400.0 mg/kg/injection, schedule: Q04DX002 (ip), vehicle: Klucel (hydroxypropylcellulose) (HPC) 102 % of control

Nc1ncnc2nc[nH]c12.[Cl][Pt][Cl]
inactive: dose: 100.0 mg/kg/injection, schedule: Q01DX009 (ip), vehicle: water 101 % of control | dose: 100.0 mg/kg/injection, schedule: Q04DX003 (ip), vehicle: water 94 % of control | dose: 200.0 mg/kg/injection, schedule: Q01DX009 (ip), vehicle: water 96 % of control | dose: 200.0 mg/kg/injection, schedule: Q04DX003 (ip), vehicle: water 87 % of control | dose: 400.0 mg/kg/injection, schedule: Q01DX009 (ip), vehicle: water 90 % of control | dose: 400.0 mg/kg/injection, schedule: Q04DX003 (ip), vehicle: water 94 % of control

CC(=O)OCc1ccc(Cl)cc1
inactive: [1] 96 % of control | [4] 102 % of control

O=[N+]([O-])c1ccc(S(=O)(=O)O/N=C2\c3ccccc3-c3ccc([N+](=O)[O-])cc32)cc1
active: [8] 161 % of control
inactive: [9] 97 % of control | [10] 109 % of control | [11] 98 % of control | [12] 109 % of control | [13] 95 % of control

CC1(C)OC2C(COC(=O)Oc3ccccc3)OC(n3cnc4c(=S)nc[nH]c43)C2O1 (stereo unspecified)
inactive: [14] 117 % of control | [9] 100 % of control | [11] 109 % of control

CC(=O)C(CCC#N)C(C)=O.CC(=O)C(CCC#N)C(C)=O.[Cu]
inactive: dose: 6.25 mg/kg/injection, schedule: Q01DX009 (ip), vehicle: Klucel (hydroxypropylcellulose) (HPC) 95 % of control | dose: 12.5 mg/kg/injection, schedule: Q01DX009 (ip), vehicle: Klucel (hydroxypropylcellulose) (HPC) 98 % of control | dose: 12.5 mg/kg/injection, schedule: Q04DX003 (ip), vehicle: Klucel (hydroxypropylcellulose) (HPC) 90 % of control | dose: 25.0 mg/kg/injection, schedule: Q01DX009 (ip), vehicle: Klucel (hydroxypropylcellulose) (HPC) 87 % of control | dose: 25.0 mg/kg/injection, schedule: Q04DX003 (ip), vehicle: Klucel (hydroxypropylcellulose) (HPC) 91 % of control

Cc1ccc(-c2c(C)c(-c3ccccc3)c(-c3ccccc3)c(C)c2-c2ccccc2)cc1C
inactive: dose: 100.0 mg/kg/injection, schedule: Q01DX001 (ip), vehicle: saline with Tween-80 104 % of control | dose: 200.0 mg/kg/injection, schedule: Q01DX001 (ip), vehicle: saline with Tween-80 100 % of control | dose: 400.0 mg/kg/injection, schedule: Q01DX001 (ip), vehicle: saline with Tween-80 100 % of control

C1CCCC(NNC2CCCCCCC2)CCC1
inactive: [15] 94 % of control

COC1=CC(=O)C(C2CC(=O)c3c(O)cc(O)cc3O2)=CC1=O (stereo unspecified)
inactive: dose: 25.0 mg/kg/injection, schedule: Q01DX009 (ip), vehicle: saline with Tween-80 92 % of control | dose: 50.0 mg/kg/injection, schedule: Q01DX009 (ip), vehicle: saline with Tween-80 98 % of control | [14] 103 % of control

C=CC(N)=O (tested in a mixture with another compound)
inactive: [15] 99 % of control | [3] 99 % of control | [6] 89 % of control

O=C1c2ccccc2C(=O)N1CNc1ccc(Cc2ccc(NCN3C(=O)c4ccccc4C3=O)c(Cl)c2)cc1Cl
inactive: [14] 92 % of control | dose: 100.0 mg/kg/injection, schedule: Q04DX003 (ip), vehicle: saline 101 % of control | [16] 92 % of control | dose: 200.0 mg/kg/injection, schedule: Q04DX003 (ip), vehicle: saline 96 % of control | [17] 92 % of control | dose: 400.0 mg/kg/injection, schedule: Q04DX003 (ip), vehicle: saline 96 % of control

O=[N+]([O-])c1ccc(Oc2c(Cl)cc(Cl)cc2Cl)c([N+](=O)[O-])c1
inactive: dose: 222.0 mg/kg/injection, schedule: Q01DX Z (ip), vehicle: methylcellulose (MC) 103 % of control | dose: 333.0 mg/kg/injection, schedule: Q01DX Z (ip), vehicle: methylcellulose (MC) 105 % of control | dose: 500.0 mg/kg/injection, schedule: Q01DX Z (ip), vehicle: methylcellulose (MC) 101 % of control

N#CCc1ccc(N=Cc2ccc([N+](=O)[O-])s2)cc1
inactive: dose: 25.0 mg/kg/injection, schedule: Q04DX003 (ip), vehicle: saline with Tween-80 102 % of control | dose: 50.0 mg/kg/injection, schedule: Q04DX003 (ip), vehicle: saline with Tween-80 90 % of control

O=C(NCCO)C1OCOC2C(CO)OCOC12 (stereo unspecified)
inactive: dose: 12.5 mg/kg/injection, schedule: Q04DX002 (ip), vehicle: saline 101 % of control | dose: 25.0 mg/kg/injection, schedule: Q04DX002 (ip), vehicle: saline 101 % of control | dose: 50.0 mg/kg/injection, schedule: Q04DX002 (ip), vehicle: saline 101 % of control | [18] 93 % of control

COc1cc(/C=N\Nc2ccccc2[N+](=O)[O-])cc(OC)c1OC
inactive: [2] 86 % of control | [5] 91 % of control | [7] 89 % of control

C/C=C\C=C\COC(=O)CC(C)C
inactive: [18] 103 % of control | dose: 200.0 mg/kg/injection, schedule: Q04DX002 (ip), vehicle: saline 103 % of control | dose: 400.0 mg/kg/injection, schedule: Q04DX002 (ip), vehicle: saline 103 % of control

CN(C)c1ccc(CN2CCCN(Cc3ccc(N(C)C)cc3)C2c2ccccc2O)cc1
inactive: [14] 100 % of control | [9] 97 % of control | [16] 107 % of control | [11] 100 % of control | [17] 106 % of control | [13] 97 % of control

Cc1ccc(S(=O)(=O)N2CC3CC2CN3Cc2ccccc2)cc1 (stereo unspecified)
inactive: [8] 97 % of control | [9] 98 % of control | [10] 97 % of control | [11] 101 % of control | [12] 92 % of control | [13] 106 % of control
